Results on one compound are retold here after patent publication US7820720B2 (TDT Limited, priority 2008, dated 2010).

A short description of this data set: Terbinafine serum concentration after topical administration (LC-MSMS). It is filed as in vivo, human. The note with it: topical terbinafine formulation, 6.0 mg dose; day 1 and week 12; all individuals, each time point, steady state and all trough levels. The method, then: Blood samples (2.7 ml) for the determination of terbinafine concentrations in serum were taken before the first application (0 hour) and 0.5, 1, 2, 4, 8, and 12 hours after administration of a 6.0 mg dose of topical terbinafine. The sample 12 hours following the first administration was taken before the second daily administration of the topical terbinafine formulation.
Serum samples for terbinafine were analyzed by LC-MSMS. The internal standard used was naftifine. Samples were prepared by adding 50 μL serum to 50 μL methanol and 300 μL of internal standard solution (50 μg/L naftifine in 9:1 acetonitrile/methanol solution). The solution was allowed to stand for 5 minutes, and then subjected to centrifugation. After centrifugation, 50 μL of the supernatant was added to 450 μL of the mobile phase solution.
The serum concentrations were measured at day 1 and week 12 of the study.

As for `CN(C/C=C/C#CC(C)(C)C)Cc1cccc2ccccc12` [terbinafine], the Terbinafine serum concentration entry is given as “less than 1 ng/ml”.
